Where two headings read alike, the source gives them in different places.
Experiments:
cell cycle = cell cycle analysis; assay type: cell-based; conditions: up to 10 uM
CDK2/cyclin A = CDK2/cyclin A (Homo sapiens (Human), UniProt P24941); assay: CDK2/Cyclin A enzymatic activity assay (IMAP-FP); assay type: biochemical
CDK1/cyclin B = CDK1/cyclin B (Homo sapiens (Human), UniProt P06493); assay: CDK1/Cyclin B enzymatic activity assay (IMAP-FP); assay type: biochemical
Description: A 384-well microtiter IMAP-FPT™ (Molecular Devices Trade Mark Technology) endpoint assay was used for CDK1/cyclin B kinase activity measurements. The same assay was used for IC50 determination of small molecule inhibitors.

CDK4/cyclin D1 = CDK4/cyclin D1 (Homo sapiens (Human), UniProt P11802); assay: CDK4/Cyclin D1 enzymatic activity assay (Lance TR-FRET); assay type: biochemical
Procedure, shortened: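 Recombinant His6-CDK4/GST-cyclin D1 (Sf21-expressed), 0.3 nM, phosphorylated 175 nM pRb152 with 3 μM ATP in HEPES pH 7.5, Mg/Mn buffer, 2% DMSO, 60 min at room temperature. Compound range 0.005-10 μM. EDTA-quenched; pRb S780 phosphorylation read by TR-FRET (Eu anti-rabbit/APC-streptavidin) for IC50.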

pRb negative cells = assay: cell proliferation of pRb negative cells; assay type: cell-based; conditions: high concentrations
[1] = Table 2, 20 μM ATP, read-out: CDK1
[2] = Table 2, 3 μM ATP, read-out: CDK4

CDK4/cyclin D1, sequence (P11802 whole entry): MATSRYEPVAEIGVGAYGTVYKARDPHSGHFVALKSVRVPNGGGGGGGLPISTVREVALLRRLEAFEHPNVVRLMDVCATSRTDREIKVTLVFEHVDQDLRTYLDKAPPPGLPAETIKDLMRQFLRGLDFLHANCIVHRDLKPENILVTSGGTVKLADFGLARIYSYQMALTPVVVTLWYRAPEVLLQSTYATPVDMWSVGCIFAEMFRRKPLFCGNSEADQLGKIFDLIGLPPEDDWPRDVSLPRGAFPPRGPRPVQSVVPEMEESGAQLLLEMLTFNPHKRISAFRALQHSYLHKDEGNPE
CDK4/cyclin D1, sequence (P24385 whole entry partner): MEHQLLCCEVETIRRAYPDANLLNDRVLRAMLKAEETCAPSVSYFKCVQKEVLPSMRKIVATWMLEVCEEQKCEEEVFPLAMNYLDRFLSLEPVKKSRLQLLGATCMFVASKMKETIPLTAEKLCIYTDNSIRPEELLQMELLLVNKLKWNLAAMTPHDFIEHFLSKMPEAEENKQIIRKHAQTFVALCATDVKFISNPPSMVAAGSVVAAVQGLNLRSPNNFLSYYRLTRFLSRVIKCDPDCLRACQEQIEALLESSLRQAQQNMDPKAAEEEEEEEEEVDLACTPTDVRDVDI
CDK1/cyclin B, sequence (P06493 whole entry, species assumed): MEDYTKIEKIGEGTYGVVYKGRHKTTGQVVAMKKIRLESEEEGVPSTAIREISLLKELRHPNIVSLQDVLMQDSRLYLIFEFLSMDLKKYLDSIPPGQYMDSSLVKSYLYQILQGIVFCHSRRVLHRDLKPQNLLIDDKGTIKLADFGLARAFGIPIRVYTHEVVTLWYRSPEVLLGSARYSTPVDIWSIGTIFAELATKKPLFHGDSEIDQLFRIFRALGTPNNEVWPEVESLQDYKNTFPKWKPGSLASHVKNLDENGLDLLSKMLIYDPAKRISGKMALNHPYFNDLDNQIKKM
CDK1/cyclin B, sequence (P14635 whole entry partner, species assumed): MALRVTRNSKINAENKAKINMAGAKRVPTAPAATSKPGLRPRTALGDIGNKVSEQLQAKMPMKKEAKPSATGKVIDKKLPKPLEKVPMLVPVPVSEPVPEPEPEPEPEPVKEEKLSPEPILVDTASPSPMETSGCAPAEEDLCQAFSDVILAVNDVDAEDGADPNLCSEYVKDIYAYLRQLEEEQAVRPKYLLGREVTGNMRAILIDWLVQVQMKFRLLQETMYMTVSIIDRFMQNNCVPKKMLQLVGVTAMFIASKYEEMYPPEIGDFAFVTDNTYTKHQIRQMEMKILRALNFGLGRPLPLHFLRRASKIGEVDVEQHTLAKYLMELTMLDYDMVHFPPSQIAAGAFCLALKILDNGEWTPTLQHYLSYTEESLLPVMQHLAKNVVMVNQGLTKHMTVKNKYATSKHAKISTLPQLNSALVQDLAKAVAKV

IC50 (CDK2/cyclin A; Table 4, read-out: IC50 (μM) CDK2) [µM]	IC50 (CDK1/cyclin B; Table 4, read-out: IC50 (μM) CDK1) [µM]	IC50 (CDK4/cyclin D1; Table 4, read-out: IC50 (μM) CDK4) [µM]	IC50 (CDK2/cyclin A; Table 2, read-out: CDK2) [µM]	IC50 (CDK1/cyclin B; [1]) [µM]	IC50 (CDK4/cyclin D1; [2]) [µM]	Compound	cell cycle arrest phase (cell cycle)	inhibition of cell proliferation of pRb negative cells (pRb negative cells)
> 1.4	> 1.6	0.005				CN(C)C(=O)c1cc2cnc(Nc3ccc(N4CCNCC4)cc3)nc2n1C1CCCC1 [Example 200, reference compound]	starts to induce G2/M phase blocks at 1 and 10 uM concentrations	does inhibit the cell proliferation of pRb negative cells at high concentrations
			> 15	> 15	0.001 to 0.01	C[C@@H]1CN(c2ccc(Nc3ncc4cc(C(=O)N(C)C)n(C5CCCC5)c4n3)nc2)CCN1 [Example 16, 7-Cyclopentyl-2-[5-((R)-3-methyl-piperazin-1-yl)-pyridin-2-ylamino]-7H-pyrrolo[2,3-d]pyrimidine-6-carboxylic acid dimethylamide]		
			> 15	> 15	0.01 to 0.1	C[C@H](O)CN1CCN(c2ccc(Nc3ncc4cc(C(=O)N(C)C)n(C5CCCC5)c4n3)nc2)CC1 [Example 56, 7-Cyclopentyl-2-{5-[4-((S)-2-hydroxy-propyl)-piperazin-1-yl]-pyridin-2-ylamino}-7H-pyrrolo[2,3-d]pyrimidine-6-carboxylic acid dimethylamide]		
			> 15	> 15	0.01 to 0.1	CN(C)C(=O)c1cc2cnc(Nc3ccc(N(C)CCN)cn3)nc2n1C1CCCC1 [Example 59, 2-{5-[(2-Amino-ethyl)-methyl-amino]-pyridin-2-ylamino}-7-cyclopentyl-7H-pyrrolo[2,3-d]pyrimidine-6-carboxylic acid dimethylamide]		
			> 15	> 15	0.01 to 0.1	CN(C)C(=O)c1cc2cnc(Nc3ccc(N4CCNCC4)nn3)nc2n1C1CCCC1 [Example 67, 7-Cyclopentyl-2-(6-piperazin-1-yl-pyridazin-3-ylamino)-7H-pyrrolo[2,3-d]pyrimidine-6-carboxylic acid dimethylamide]		
			2.8	1.1	0.001 to 0.01	c1ncc(-c2cc3cnc(Nc4ccc(CN5CCNCC5)cn4)nc3n2C2CCCC2)o1 [Example 18, (7-Cyclopentyl-6-oxazol-5-yl-7H-pyrrolo[2,3-d]pyrimidin-2-yl)-(5-piperazin-1-ylmethyl-pyridin-2-yl)-amine]		
			> 15	> 15	0.01 to 0.1	CN(C)C(=O)c1cc2cnc(Nc3ccc(N4CCC(O)CC4)cn3)nc2n1C1CCCC1 [Example 20, 7-Cyclopentyl-2-(4-hydroxy-3,4,5,6-tetrahydro-2H-[1,3′]bipyridinyl-6′-ylamino)-7H-pyrrolo[2,3-d]pyrimidine-6-carboxylic acid dimethylamide]		

Compound	IC50 (CDK2/cyclin A; Table 4, read-out: IC50 (μM) CDK2) [µM]	IC50 (CDK1/cyclin B; Table 4, read-out: IC50 (μM) CDK1) [µM]	IC50 (CDK4/cyclin D1; Table 4, read-out: IC50 (μM) CDK4) [µM]	IC50 (CDK2/cyclin A; Table 2, read-out: CDK2) [µM]	IC50 (CDK1/cyclin B; [1]) [µM]	IC50 (CDK4/cyclin D1; [2]) [µM]	cell cycle arrest phase (cell cycle)	inhibition of cell proliferation of pRb negative cells (pRb negative cells)
CN(C)C(=O)c1cc2cnc(Nc3ccc(CN4CCN(C)C(=O)C4)cn3)nc2n1C1CCCC1 [Example 60, 7-Cyclopentyl-2-[5-(4-methyl-3-oxo-piperazin-1-ylmethyl)-pyridin-2-ylamino]-7H-pyrrolo[2,3-d]pyrimidine-6-carboxylic acid dimethylamide]				> 15	> 15	0.1 to 1		

From US8962630B2, “Pyrrolopyrimidine compounds and their uses” (Novartis AG, priority 2008, dated 2015)
